Results: US8871753B2, “Macrocyclic compounds and their use as kinase inhibitors” (Incyte Corporation, priority 2008, dated 2014)
Structures can show the parent of a compound that is named as a salt. Where two headings read alike, the source gives them in different places.

What was measured:
Assay type in all cases: biochemical
[1] = target: T1, human JAK1 (a.a. 837-1142) (Homo sapiens, UniProt P23458); test: In vitro JAK kinase assay (HTRF, phosphorylation of a biotinylated peptide), JAK1; details: read-out: JAK1 IC50
T1 construct: human JAK1 (a.a. 837-1142); His tag (N); made in house; host or cells: insect cells (baculovirus)
T1 sequence (P23458 849-1154): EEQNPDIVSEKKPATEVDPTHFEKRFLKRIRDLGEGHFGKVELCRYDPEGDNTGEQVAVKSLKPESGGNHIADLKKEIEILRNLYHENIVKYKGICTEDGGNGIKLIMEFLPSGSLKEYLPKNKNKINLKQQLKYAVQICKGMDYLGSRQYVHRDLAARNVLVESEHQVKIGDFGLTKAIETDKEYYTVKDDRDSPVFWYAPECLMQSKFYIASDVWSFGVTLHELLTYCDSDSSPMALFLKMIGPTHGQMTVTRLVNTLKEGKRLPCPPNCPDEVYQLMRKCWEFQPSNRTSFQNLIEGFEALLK
Procedure: (§1) The catalytic activity of JAK1, JAK2 or JAK3 was assayed by measuring the phosphorylation of a biotinylated peptide. The phosphorylated peptide was detected by homogenous time resolved fluorescence (HTRF). […] The ATP concentration in the reactions was 90 μM for JAK1, 30 μM for JAK2 and 3 μM for JAK3. Reactions were carried out at room temperature for 1 hr and then stopped with 20 μL 45 mM EDTA, 300 nM SA-APC, 6 nM Eu-Py20 in assay buffer (Perkin Elmer, Boston, Mass.). Binding to the Europium labeled antibody took place for 40 minutes and HTRF signal was measured on a Fusion plate reader (Perkin Elmer, Boston, Mass.).
(§2) The catalytic activity of JAK1, JAK2 or JAK3 was assayed by measuring the phosphorylation of a biotinylated peptide. The phosphorylated peptide was detected by homogenous time resolved fluorescence (HTRF). […] Reactions were carried out at room temperature for 1 hr and then stopped with 20 μL 45 mM EDTA, 300 nM SA-APC, 6 nM Eu-Py20 in assay buffer (Perkin Elmer, Boston, Mass.). Binding to the Europium labeled antibody took place for 40 minutes and HTRF signal was measured on a Fusion plate reader (Perkin Elmer, Boston, Mass.).

[2] = target: T2, human JAK2 (a.a. 828-1132) (Homo sapiens, UniProt O60674); test: In vitro JAK kinase assay (HTRF, phosphorylation of a biotinylated peptide), JAK2
T2 construct: JAK2 (a.a. 828-1132); His tag (N); made in house; host or cells: insect cells (baculovirus)
T2 sequence (O60674 828-1132): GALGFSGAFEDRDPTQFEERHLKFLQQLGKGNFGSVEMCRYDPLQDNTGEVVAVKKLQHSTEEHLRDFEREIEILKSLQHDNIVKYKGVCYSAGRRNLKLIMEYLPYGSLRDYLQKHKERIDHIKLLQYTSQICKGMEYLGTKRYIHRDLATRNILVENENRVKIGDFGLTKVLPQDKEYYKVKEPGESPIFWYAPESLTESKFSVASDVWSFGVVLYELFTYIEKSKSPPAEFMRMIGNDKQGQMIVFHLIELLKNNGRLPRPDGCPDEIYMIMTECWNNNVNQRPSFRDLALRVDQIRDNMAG
Procedure: as §1, §2

[3] = target: T3, human JAK3 (a.a. 781-1124) (Homo sapiens, UniProt P52333); test: In vitro JAK kinase assay (HTRF, phosphorylation of a biotinylated peptide), JAK3
T3 construct: JAK3 (a.a. 781-1124); His tag (N); made in house; host or cells: insect cells (baculovirus)
T3 sequence (P52333 781-1124): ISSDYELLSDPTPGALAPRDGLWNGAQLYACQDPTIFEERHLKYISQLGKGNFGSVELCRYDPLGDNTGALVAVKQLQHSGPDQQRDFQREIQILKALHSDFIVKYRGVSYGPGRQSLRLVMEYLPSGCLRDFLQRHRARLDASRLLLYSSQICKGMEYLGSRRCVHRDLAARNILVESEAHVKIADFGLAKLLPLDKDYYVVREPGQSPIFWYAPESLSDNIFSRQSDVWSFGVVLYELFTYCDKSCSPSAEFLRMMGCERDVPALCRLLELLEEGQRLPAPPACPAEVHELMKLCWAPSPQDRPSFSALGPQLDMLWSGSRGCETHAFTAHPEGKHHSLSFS
Procedure: as §1, §2

TYK2 = TYK2 (Homo sapiens, UniProt P29597); test: TYK2 kinase inhibition (Table A1)
Chain of TYK2 (P29597 whole entry): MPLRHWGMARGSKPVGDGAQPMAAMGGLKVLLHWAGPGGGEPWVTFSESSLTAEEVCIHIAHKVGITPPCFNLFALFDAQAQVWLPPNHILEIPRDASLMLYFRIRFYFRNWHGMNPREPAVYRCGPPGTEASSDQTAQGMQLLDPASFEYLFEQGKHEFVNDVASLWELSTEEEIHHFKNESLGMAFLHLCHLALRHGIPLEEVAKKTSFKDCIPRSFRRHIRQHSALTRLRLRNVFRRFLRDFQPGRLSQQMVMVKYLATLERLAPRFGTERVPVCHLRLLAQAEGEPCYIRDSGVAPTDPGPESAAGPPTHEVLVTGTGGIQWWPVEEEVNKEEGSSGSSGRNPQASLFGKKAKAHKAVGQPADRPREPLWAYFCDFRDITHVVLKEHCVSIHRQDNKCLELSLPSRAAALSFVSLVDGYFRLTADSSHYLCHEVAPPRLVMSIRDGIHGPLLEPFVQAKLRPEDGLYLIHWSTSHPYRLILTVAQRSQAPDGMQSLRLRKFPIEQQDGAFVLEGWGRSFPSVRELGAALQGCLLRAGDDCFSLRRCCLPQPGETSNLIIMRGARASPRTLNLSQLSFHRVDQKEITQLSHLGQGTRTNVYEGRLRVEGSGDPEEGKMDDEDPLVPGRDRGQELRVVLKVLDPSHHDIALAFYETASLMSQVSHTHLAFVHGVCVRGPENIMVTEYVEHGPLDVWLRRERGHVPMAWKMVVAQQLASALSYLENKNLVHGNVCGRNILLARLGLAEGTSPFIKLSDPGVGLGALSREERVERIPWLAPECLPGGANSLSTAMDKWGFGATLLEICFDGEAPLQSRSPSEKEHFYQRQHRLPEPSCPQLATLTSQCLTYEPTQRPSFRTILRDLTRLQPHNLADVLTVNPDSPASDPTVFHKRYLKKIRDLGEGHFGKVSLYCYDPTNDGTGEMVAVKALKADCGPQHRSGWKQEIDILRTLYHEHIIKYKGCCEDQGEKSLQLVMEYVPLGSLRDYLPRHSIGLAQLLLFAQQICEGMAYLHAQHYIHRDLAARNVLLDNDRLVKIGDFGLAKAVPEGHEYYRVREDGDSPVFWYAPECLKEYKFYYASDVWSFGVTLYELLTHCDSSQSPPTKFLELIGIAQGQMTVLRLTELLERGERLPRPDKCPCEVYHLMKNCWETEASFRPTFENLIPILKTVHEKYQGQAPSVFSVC

[4] = method AA1 (90 μM ATP) or AA2 (1000 μM ATP), not stated per value
[5] = method AA1 (30 μM ATP) or AA2 (1000 μM ATP), not stated per value
[6] = method AA1 (3 μM ATP) or AA2 (1000 μM ATP), not stated per value

Structure (SMILES) | IC50 ([1]; Table D1) | IC50 ([2]; Table D1) | other results
COc1ccc2cc1Nc1nc(ncc1Cl)Nc1cccc(c1)CC2 [Example A25, 6-Chloro-10-methoxy-2,4,8,22-tetraazatetracyclo[14.3.1.1(3,7).1(9,13)]docosa-1(20),3(22),4,6,9(21),10,12,16,18-nonaene trifluoroacetate] | – | – | IC50 [1, 4]: 38 nM; IC50 [2, 5]: 21 nM; IC50 [3, 6]: 14 nM; IC50 (TYK2): 122 nM
N#Cc1ccc(NC(=O)N2CCC(C(=O)Nc3ccc4cc3CCc3cccc(c3)Nc3ncc(Cl)c(n3)N4)CC2)cc1 [Example A37, N(4)-[6-Chloro-2,4,8,22-tetraazatetracyclo[14.3.1.1(3,7).1(9,13)]docosa-1(20),3(22),4,6,9(21),10,12,16,18-nonaen-12-yl]-N(1)-(4-cyanophenyl)piperidine-1,4-dicarboxamide trifluoroacetate] | – | – | IC50 [1, 4]: 9 nM; IC50 [2, 5]: 11 nM; IC50 [3, 6]: 24 nM; IC50 (TYK2): 21 nM
O=C(Nc1ccc2cc1CCc1cccc(c1)Nc1ncc(Cl)c(n1)N2)C1CCN(C(=O)Nc2ccc(Cl)nc2)CC1 [Example A40, N(1)-(6-Chloropyridin-3-yl)-N(4)-[6-chloro-2,4,8,22-tetraazatetracyclo[14.3.1.1(3,7).1(9,13)]docosa-1(20),3(22),4,6,9(21),10,12,16,18-nonaen-12-yl]piperidine-1,4-dicarboxamide bis(trifluoroacetate)] | – | – | IC50 [1, 4]: 16 nM; IC50 [2, 5]: 15 nM; IC50 [3, 6]: 30 nM; IC50 (TYK2): 18 nM
O=C(Nc1ccc2cc1CCc1cccc(c1)Nc1ncc(Cl)c(n1)N2)c1nc2ccccc2s1 [Example B74, N-[6-Chloro-2,4,8,22-tetraazatetracyclo[14.3.1.1(3,7).1(9,13)]docosa-1(20), 3(22),4,6,9(21),10,12,16,18-nonaen-12-yl]-1,3-benzothiazole-2-carboxamide trifluoroacetate] | – | – | IC50 ([1]; Table B1): > 1000 nM; IC50 ([3]; Table B1): > 1000 nM; IC50 (TYK2; Table B1): > 1000 nM
O=C(C[C@H]1CCN(C(=O)c2c[nH]nn2)C1)Nc1ccc2cc1CCc1cncc(c1)Nc1ncc(Cl)c(n1)N2 [Example D129-a, N-[6-Chloro-2,4,8,18,22-pentaazatetracyclo[14.3.1.1(3,7).1(9,13)]docosa-1(20),3(22),4,6,9(21),10,12,16,18-nonaen-12-yl]-2-[(3R)-1-(1H-1,2,3-triazol-4-ylcarbonyl)pyrrolidin-3-yl]acetamide bis(trifluoroacetate)] | 15 nM | 84 nM | –
O=C(C[C@H]1CCN(C(=O)c2cn[nH]c2)C1)Nc1ccc2cc1CCc1cncc(c1)Nc1ncc(Cl)c(n1)N2 [Example D129-b, N-[6-Chloro-2,4,8,18,22-pentaazatetracyclo[14.3.1.1(3,7).1(9,13)]docosa-1(20),3(22),4,6,9(21),10,12,16,18-nonaen-12-yl]-2-[(3R)-1-(1H-pyrazol-4-ylcarbonyl)pyrrolidin-3-yl]acetamide bis(trifluoroacetate)] | 33 nM | 600 nM | –

Continued, in another order:

IC50 ([1]; Table D1) | IC50 ([2]; Table D1) | Structure (SMILES) | other results
12 nM | 199 nM | CS(=O)(=O)N1CC[C@@H](CC(=O)Nc2ccc3cc2CCc2cncc(c2)Nc2ncc(Cl)c(n2)N3)C1 [Example D127, N-[6-Chloro-2,4,8,18,22-pentaazatetracyclo[14.3.1.1(3,7).1(9,13)]docosa-1(20),3(22),4,6,9(21),10,12,16,18-nonaen-12-yl]-2-[(3S)-1-(methylsulfonyl)pyrrolidin-3-yl]acetamide bis(trifluoroacetate)] | –
21 nM | 199 nM | O=C(C[C@H]1CCN(C(=O)c2nc[nH]n2)C1)Nc1ccc2cc1CCc1cncc(c1)Nc1ncc(Cl)c(n1)N2 [Example D128, N-[6-Chloro-2,4,8,18,22-pentaazatetracyclo[14.3.1.1(3,7).1(9,13)]docosa-1(20),3(22),4,6,9(21),10,12,16,18-nonaen-12-yl]-2-[(3R)-1-(1H-1,2,4-triazol-3-ylcarbonyl)pyrrolidin-3-yl]acetamide bis(trifluoroacetate)] | –
8.6 nM | 125 nM | O=C(C[C@@H]1CCN(C(=O)c2nc[nH]n2)C1)Nc1ccc2cc1CCc1cncc(c1)Nc1ncc(Cl)c(n1)N2 [Example D131, N-[6-Chloro-2,4,8,18,22-pentaazatetracyclo[14.3.1.1(3,7).1(9,13)]docosa-1(20),3(22),4,6,9(21),10,12,16,18-nonaen-12-yl]-2-[(3S)-1-(1H-1,2,4-triazol-3-ylcarbonyl)pyrrolidin-3-yl]acetamide bis(trifluoroacetate)] | –
3.2 nM | 43 nM | O=C(C[C@@H]1CCN(C(=O)c2c[nH]nn2)C1)Nc1ccc2cc1CCc1cncc(c1)Nc1ncc(Cl)c(n1)N2 [Example D132, N-[6-Chloro-2,4,8,18,22-pentaazatetracyclo[14.3.1.1(3,7).1(9,13)]docosa-1(20),3(22),4,6,9(21),10,12,16,18-nonaen-12-yl]-2-[(3S)-1-(1H-1,2,3-triazol-4-ylcarbonyl)pyrrolidin-3-yl]acetamide bis(trifluoroacetate)] | –
73 nM | 900 nM | O=C(C[C@@H]1CCN(C(=O)c2cn[nH]c2)C1)Nc1ccc2cc1CCc1cncc(c1)Nc1ncc(Cl)c(n1)N2 [Example D133, N-[6-Chloro-2,4,8,18,22-pentaazatetracyclo[14.3.1.1(3,7).1(9,13)]docosa-1(20),3(22),4,6,9(21),10,12,16,18-nonaen-12-yl]-2-[(3S)-1-(1H-pyrazol-4-ylcarbonyl)pyrrolidin-3-yl]acetamide bis(trifluoroacetate)] | –
44 nM | 357 nM | O=C(C[C@@H]1CCN(C(=O)c2cc[nH]n2)C1)Nc1ccc2cc1CCc1cncc(c1)Nc1ncc(Cl)c(n1)N2 [Example D134, N-[6-Chloro-2,4,8,18,22-pentaazatetracyclo[14.3.1.1(3,7).1(9,13)]docosa-1(20),3(22),4,6,9(21),10,12,16,18-nonaen-12-yl]-2-[(3S)-1-(1H-pyrazol-3-ylcarbonyl)pyrrolidin-3-yl]acetamide bis(trifluoroacetate)] | –
65 nM | 462 nM | Cc1cc(C(=O)N2CCC[C@H](CC(=O)Nc3ccc4cc3CCc3cncc(c3)Nc3ncc(Cl)c(n3)N4)C2)no1 [Example D209, N-[6-Chloro-2,4,8,18,22-pentaazatetracyclo[14.3.1.1(3,7).1(9,13)]docosa-1(20),3(22),4,6,9(21),10,12,16,18-nonaen-12-yl]-2-{(3R)-1-[(5-methylisoxazol-3-yl)carbonyl]piperidin-3-yl}acetamide bis(trifluoroacetate)] | –
1 nM | 14 nM | O=C1c2ccccc2C(=O)N1CCS(=O)(=O)Nc1ccc2cc1CCc1cncc(c1)Nc1ncc(Cl)c(n1)N2 [Example D210, N-[6-Chloro-2,4,8,18,22-pentaazatetracyclo[14.3.1.1(3,7).1(9,13)]docosa-1(20),3(22),4,6,9(21),10,12,16,18-nonaen-12-yl]-2-(1,3-dioxo-1,3-dihydro-2H-isoindol-2-yl)ethanesulfonamide bis(trifluoroacetate)] | –
4.2 nM | 160 nM | O=C(C[C@@H]1CCCN(c2nc3ccccc3s2)C1)Nc1ccc2cc1CCc1cncc(c1)Nc1ncc(Cl)c(n1)N2 [Example D211, 2-[(3S)-1-(1,3-Benzothiazol-2-yl)piperidin-3-yl]-N-[6-chloro-2,4,8,18,22-pentaazatetracyclo[14.3.1.1(3,7).1(9,13)]docosa-1(20),3(22),4,6,9(21),10,12,16,18-nonaen-12-yl]acetamide tris(trifluoroacetate)] | –
64 nM | > 1000 nM | O=C(C[C@H]1CCCN(c2nc3ccccc3s2)C1)Nc1ccc2cc1CCc1cncc(c1)Nc1ncc(Cl)c(n1)N2 [Example D212, 2-[(3R)-1-(1,3-Benzothiazol-2-yl)piperidin-3-yl]-N-[6-chloro-2,4,8,18,22-pentaazatetracyclo[14.3.1.1(3,7).1(9,13)]docosa-1(20),3(22),4,6,9(21),10,12,16,18-nonaen-12-yl]acetamide tris(trifluoroacetate)] | –
12 nM | > 1000 nM | O=C(C[C@H]1CCCN(c2nc3cccnc3o2)C1)Nc1ccc2cc1CCc1cncc(c1)Nc1ncc(Cl)c(n1)N2 [Example D214, N-[6-Chloro-2,4,8,18,22-pentaazatetracyclo[14.3.1.1(3,7).1(9,13)]docosa-1(20),3(22),4,6,9(21),10,12,16,18-nonaen-12-yl]-2-[(3R)-1-[1,3]oxazolo[5,4-b]pyridin-2-ylpiperidin-3-yl]acetamide tris(trifluoroacetate)] | –
53 nM | 103 nM | c1cc2cc(c1)Nc1ccnc(n1)Nc1cncc(c1)CC2 [Example D217, 2,4,8,18,22-Pentaazatetracyclo[14.3.1.1(3,7).1(9,13)]docosa-1(20),3(22),4,6,9(21),10,12,16,18-nonaene bis(trifluoroacetate)] | IC50 ([3]; Table D1): > 400 nM
